Article PMC6364417, “Kinase inhibitor library screening identifies synergistic drug combinations effective in sensitive and resistant melanoma cells” (Journal of Experimental & Clinical Cancer Research : CR, 2019)
Read-outs that look alike come from different tables or passages of the source.

Key:
Test in all cases: Kinase inhibitor library screening, PrestoBlue cell viability, 1 or 10 μM, 72 h
[1] = tested on: IGR37-GP cells (Dabrafenib-resistant); conditions: for cell viability (kinase inhibitor library screening) / Cell viability in kinase inhibitor library screening, IGR37 GP, 1μΜ: in %
Method: (§1) After 72 h of treatment, cell viability was assessed using the PrestoBlue Cell Viability Reagent (ThermoFisher Scientific). Measurements were performed with the CLARIOstar Monochromator microplate reader (BMG Labtech).
(§2) Kinase inhibitor library screening. […] Each cell line was treated in its sensitive form (parental), and also as 2 resistant derivatives, which were made resistant to either Vemurafenib (XP) or Dabrafenib (GP). Drugs were added at 2 different concentrations, 1 and 10 μM, for 72 h and cell viability was assessed using the PrestoBlue Cell Viability assay. Results are depicted as % viability compared to untreated cells. Each cell line was analyzed at least in duplicate. […] (XLSX 95 kb)

501Mel cells (parental) = conditions: in %
Method: as §1, §2

[2] = tested on: A375-GP cells (Dabrafenib-resistant); conditions: for cell viability (kinase inhibitor library screening): in %
Method: as §1, §2

[3] = tested on: IGR37-XP cells (Vemurafenib-resistant); conditions: for cell viability (kinase inhibitor library screening) / Cell viability in kinase inhibitor library screening, IGR37 XP, 1μΜ: in %
Method: as §1, §2

[4] = tested on: 501Mel-GP cells (Dabrafenib-resistant); conditions: 501Mel GP, in %
Method: as §1, §2

A375 cells (parental) = conditions: for cell viability (kinase inhibitor library screening): in %
Method: as §1, §2

[5] = tested on: 501Mel-XP cells (Vemurafenib-resistant); conditions: in %
Method: as §1, §2

IGR37 cells (parental) = conditions: in %
Method: as §1, §2

[6] = tested on: A375-XP cells (Vemurafenib-resistant); conditions: for cell viability (kinase inhibitor library screening): in %
Method: as §1, §2

SMILES | cell viability (kinase inhibitor library screening) ([1]; IGR37 GP, 1μΜ) | cell viability (kinase inhibitor library screening) ([1]; IGR37 GP, 10μΜ) | cell viability (kinase inhibitor library screening) (501Mel cells (parental); 501Mel Parental, 1μΜ) | cell viability (kinase inhibitor library screening) (501Mel cells (parental); 501Mel Parental, 10μΜ) | cell viability (kinase inhibitor library screening) ([2]; A375 GP, 10μΜ) | cell viability (kinase inhibitor library screening) ([3]; IGR37 XP, 10μΜ) | cell viability (kinase inhibitor library screening) ([4]; 10μΜ) | cell viability (kinase inhibitor library screening) (A375 cells (parental); A375 Parental, 1μΜ) | cell viability (kinase inhibitor library screening) (A375 cells (parental); A375 Parental, 10μΜ) | cell viability (kinase inhibitor library screening) ([5]; 501Mel XP, 1μΜ) | cell viability (kinase inhibitor library screening) ([5]; 501Mel XP, 10μΜ) | cell viability (kinase inhibitor library screening) (IGR37 cells (parental); IGR37 Parental, 1μΜ) | cell viability (kinase inhibitor library screening) (IGR37 cells (parental); IGR37 Parental, 10μΜ) | cell viability (kinase inhibitor library screening) ([6]; A375 XP, 10μΜ) | Cell viability in kinase inhibitor library screening, IGR37 GP, 10μΜ ([1]; IGR37 GP, 10μΜ, 72 h) [%] | Cell viability in kinase inhibitor library screening, IGR37 GP, 1μΜ ([1]; IGR37 GP, 1μΜ, 72 h) | Cell viability in kinase inhibitor library screening, 501Mel Parental, 10μΜ (501Mel cells (parental); 501Mel Parental, 10μΜ, 72 h) | Cell viability in kinase inhibitor library screening, A375 GP, 1μΜ ([2]; A375 GP, 1μΜ, 72 h) | Cell viability in kinase inhibitor library screening, 501Mel GP, 10μΜ ([4]; 10μΜ, 72 h) | Cell viability in kinase inhibitor library screening, A375 Parental, 10μΜ (A375 cells (parental); A375 Parental, 10μΜ, 72 h) | other results
CCN(CC)CCNC(=O)c1c(C)[nH]c(/C=C2\C(=O)Nc3ccc(F)cc32)c1C.O=C(O)C[C@H](O)C(=O)O [Sunitinib Malate (Sutent)] | 87.4 | 7.9 | 99.9 | 0.237 | 72.3 | 1.2 | 1.4 | 104.0 | 67.2 | 92.7 | -0.452 | 97.5 | 68.0 | 68.1 | – | – | – | – | – | – | cell viability (kinase inhibitor library screening) ([3]; IGR37 XP, 1μΜ): 100.5
COCCOc1ccc2c(c1)ncn2-c1ccc2cccc(N3CCC(N)CC3)c2n1 [CP 673451] | – | – | – | – | – | – | – | – | – | – | – | – | – | – | 88.6 | 99.0 | 90.0 | 105.4 | 96.1 | 71.9 | Cell viability in kinase inhibitor library screening, A375 GP, 10μΜ ([2]; A375 GP, 10μΜ, 72 h): 64.4; Cell viability in kinase inhibitor library screening, IGR37 XP, 10μΜ ([3]; IGR37 XP, 10μΜ, 72 h): 31.6%; Cell viability in kinase inhibitor library screening, IGR37 XP, 1μΜ ([3]; IGR37 XP, 1μΜ, 72 h): 105.2; Cell viability in kinase inhibitor library screening, 501Mel GP, 1μΜ ([4]; 1μΜ, 72 h): 117.9; Cell viability in kinase inhibitor library screening, A375 Parental, 1μΜ (A375 cells (parental); A375 Parental, 1μΜ, 72 h): 104.8; Cell viability in kinase inhibitor library screening, 501Mel XP, 1μΜ ([5]; 501Mel XP, 1μΜ, 72 h): 107.1; Cell viability in kinase inhibitor library screening, 501Mel XP, 10μΜ ([5]; 501Mel XP, 10μΜ, 72 h): 62.2; Cell viability in kinase inhibitor library screening, IGR37 Parental, 10μΜ (IGR37 cells (parental); IGR37 Parental, 10μΜ, 72 h): 105.1; Cell viability in kinase inhibitor library screening, A375 XP, 1μΜ ([6]; A375 XP, 1μΜ, 72 h): 109.7; Cell viability in kinase inhibitor library screening, A375 XP, 10μΜ ([6]; A375 XP, 10μΜ, 72 h): 76.9
NC(=O)c1ccc(-c2nc(-c3ccc4c(c3)OCO4)c(-c3ccccn3)[nH]2)cc1 [SB 431542] | 100.4 | 87.9 | 98.3 | – | 98.5 | – | 85.7 | 106.2 | – | 93.8 | 79.9 | – | 97.8 | 106.6 | – | – | – | – | – | – | cell viability (kinase inhibitor library screening) ([2]; A375 GP, 1μΜ): 100.0; cell viability (kinase inhibitor library screening) ([4]; 1μΜ): 102.6; cell viability (kinase inhibitor library screening) ([6]; A375 XP, 1μΜ): 109.0
C[S+]([O-])c1ccc(-c2nc(-c3ccncc3)c(-c3ccc(F)cc3)[nH]2)cc1 (centres unmarked) [SB 203580] | – | – | – | – | – | – | – | – | – | – | – | – | – | – | – | – | – | – | – | – | Cell viability in kinase inhibitor library screening, IGR37 GP, 10μΜ [1]: 86.6%; Cell viability in kinase inhibitor library screening, IGR37 GP, 1μΜ [1]: 105.2; Cell viability in kinase inhibitor library screening, 501Mel Parental, 1μΜ (501Mel cells (parental)): 108.7; Cell viability in kinase inhibitor library screening, 501Mel Parental, 10μΜ (501Mel cells (parental)): 95.5; Cell viability in kinase inhibitor library screening, A375 GP, 1μΜ [2]: 93.4; Cell viability in kinase inhibitor library screening, A375 GP, 10μΜ [2]: 98.4; Cell viability in kinase inhibitor library screening, IGR37 XP, 10μΜ [3]: 62.9%; Cell viability in kinase inhibitor library screening, IGR37 XP, 1μΜ [3]: 103.3; Cell viability in kinase inhibitor library screening, A375 Parental, 1μΜ (A375 cells (parental)): 112.0; Cell viability in kinase inhibitor library screening, A375 Parental, 10μΜ (A375 cells (parental)): 83.0; Cell viability in kinase inhibitor library screening, 501Mel XP, 10μΜ [5]: 92.5; Cell viability in kinase inhibitor library screening, IGR37 Parental, 1μΜ (IGR37 cells (parental)): 116.2; Cell viability in kinase inhibitor library screening, IGR37 Parental, 10μΜ (IGR37 cells (parental)): 92.9; Cell viability in kinase inhibitor library screening, A375 XP, 1μΜ [6]: 111.6; Cell viability in kinase inhibitor library screening, A375 XP, 10μΜ [6]: 103.1
Cn1cnc(N)c2ncnc1-2 [3-Methyladenine] | – | – | – | – | – | – | – | – | – | – | – | – | – | – | 97 | 107.1 | 107.1 | 104.5 | 93.3 | 100.5 | Cell viability in kinase inhibitor library screening, 501Mel Parental, 1μΜ (501Mel cells (parental); 501Mel Parental, 1μΜ, 72 h): 107.2; Cell viability in kinase inhibitor library screening, A375 Parental, 1μΜ (A375 cells (parental); A375 Parental, 1μΜ, 72 h): 112.2; Cell viability in kinase inhibitor library screening, 501Mel XP, 10μΜ ([5]; 501Mel XP, 10μΜ, 72 h): 87.7; Cell viability in kinase inhibitor library screening, IGR37 Parental, 1μΜ (IGR37 cells (parental); IGR37 Parental, 1μΜ, 72 h): 108.7; Cell viability in kinase inhibitor library screening, IGR37 Parental, 10μΜ (IGR37 cells (parental); IGR37 Parental, 10μΜ, 72 h): 106.4; Cell viability in kinase inhibitor library screening, A375 XP, 1μΜ ([6]; A375 XP, 1μΜ, 72 h): 106.2; Cell viability in kinase inhibitor library screening, A375 XP, 10μΜ ([6]; A375 XP, 10μΜ, 72 h): 109.5
COc1cc2nccc(Oc3ccc(NC(=O)Nc4cc(C)on4)c(Cl)c3)c2cc1OC [Tivozanib (AV-951)] | – | – | – | 74.1 | 54.4 | 55.2 | 58.3 | 104.6 | 60.4 | 97.3 | 64.2 | 97.2 | 83.4 | 77.7 | – | – | – | – | – | – | cell viability (kinase inhibitor library screening) ([2]; A375 GP, 1μΜ): 99.1; cell viability (kinase inhibitor library screening) ([4]; 1μΜ): 103.1; cell viability (kinase inhibitor library screening) ([6]; A375 XP, 1μΜ): 105.9
